Data on 33 compounds can be found in US12240828B2, “Heteroaromatic compounds as vanin inhibitors” (Boehringer Ingelheim International GmbH, priority 2018, dated 2025).

For experiment [1], the target named is T1, FLAG-tagged Vanin-1 (AA 22-493, T26I) (Homo sapiens, UniProt O95497, T26I).
T1 construct: FLAG-tagged Vanin-1 (AA 22-493, T26I, produced internally); FLAG; made in house
T1 sequence (O95497 22-493 T26I): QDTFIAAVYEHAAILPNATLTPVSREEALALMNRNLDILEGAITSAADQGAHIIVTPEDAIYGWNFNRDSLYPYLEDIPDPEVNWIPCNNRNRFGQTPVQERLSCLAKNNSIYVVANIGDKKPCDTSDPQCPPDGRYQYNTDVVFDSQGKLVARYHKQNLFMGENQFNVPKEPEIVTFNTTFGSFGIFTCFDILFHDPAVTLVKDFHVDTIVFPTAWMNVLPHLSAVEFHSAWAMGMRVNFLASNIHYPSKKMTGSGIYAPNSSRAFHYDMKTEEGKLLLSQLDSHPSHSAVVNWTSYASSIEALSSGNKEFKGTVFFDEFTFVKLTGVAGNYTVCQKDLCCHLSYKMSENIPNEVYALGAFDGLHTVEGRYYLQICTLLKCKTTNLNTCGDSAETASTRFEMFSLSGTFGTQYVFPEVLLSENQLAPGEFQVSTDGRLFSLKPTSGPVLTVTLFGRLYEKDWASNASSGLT
As to the kind of experiment: Vanin-1 enzymatic assay. Format: biochemical. The following applies: 0.1 nM Vanin-1, 3 μM D-pantethine, pantothenic acid formation by RapidFire MS; geometric mean if multiple measurements; read-out: VNN-1 IC50. As to the method:
The test compounds are dissolved in 100% DMSO at a concentration of 10 mM and in a first step diluted in DMSO to a concentration of 5 mM, followed by serial dilution steps in 100% DMSO. Dilution factor and number of dilution steps may vary according to needs. Typically 8 different concentrations by 1:5 dilutions are prepared, a further intermediate dilutions of the substances is carried out with assay buffer resulting in 1% final DMSO concentration in the assay.
0.1 nM of FLAG-tagged Vanin-1 (AA 22-493, T26I, produced internally) and test compounds are incubated at room temperature for 20 minutes in assay buffer (1 mM DTT, 0.0025% Brij-35, 50 mM HEPES, pH7.5). D-Pantethine (Sigma, Cat #P2125-5G) in assay buffer is added (final concentration 3 μM) and incubated for additional 30 minutes at room temperature. Total assay volume typically is 40 μl but might be adjusted according to needs. Reaction is stopped by adding equal volume of stop solution as the reaction mixture to reach 100 nM HD-pantothenic acid (as an internal standard) and 1% TFA. Assay plates are centrifuged for 2 minutes and the formation of pantothenic acid is detected by RapidFire Mass Spectrometry (mobile phase A: 0.1% formic acid and 0.01% trifluoroacetic acid in water; mobile phase B: 47.5% acetonitrile, 47.5% methanol, 0.1% formic acid and 0.01% trifluoroacetic acid in water) using a C18, 12 μL cartridge (Agilent Cat #G9205A).
The values given in Table I result from measurements of one or more samples. In case of multiple measurements the geometric mean values are given.

The subject of the next experiment is Pantetheinase (vanin). The experiment can be described thus: Human Whole Blood assay. Format: cell-based. The following applies: pantethine substrate, pantothenic acid formation by RapidFire MS, read-out: HWB IC50. As to the method:
Human Whole Blood assay: Pantetheinase (vanin) converts panteheine into pantothenic acid and cysteamine. Accordingly, in the described protocol vanin activity is quantified by formation of pantothenic acid after pantetheine supplementation via pantethine. The assay is applicable to identify vanin inhibitors. Compound stocks are dissolved in DMSO at 10 mM. Further dilutions are performed in RPMI 1640 medium (Gibco, #A-10491-01) and final concentrations in the assay are 0.032 nM-500 nM.
Human blood is drawn into a blood bag (1% heparin, 50 I.E./mL). Blood is aliquoted into cavities of 96-deep-well plates at 290 μL and mixed with 10 μL compound solution or vehicle (30 sec at 1400 rpm on a shaker). Equilibration follows at room temperature, 250 rpm and for 30 min. The assay is starts by adding 10 μL of substrate solution (20 μM pantethine in 1 mM DTT, 0.0025% Brij-35, 50 mM HEPES, pH7.5) to each well, except for some blank wells which receive […] substrate buffer (1 mM DTT, 0.0025% Brij-35, 50 mM HEPES, pH7.5) only. Samples are thoroughly shaken (30 sec, 1400 rpm) and reaction is allowed to take place at room temperature, 250 rpm and for 5 min. The reaction is stopped by addition of a vanin tool inhibitor in excess (BI-1 total conc. 10 μM). Centrifugation of the plate follows at 4° C., 665 G for 10 min. Then the blood plasma samples (100 μL) are transferred into another 96-deep-well plate and proteins are precipitated (5 min on ice) by adding 100 μL of ice cold precipitation solution (1 μM labelled pantothenic acid (di-β-alanine-13C6,15N2 calcium salt, Sigma, #705837) in acetonitrile). Afterwards the plate is centrifuged (4° C., 3220 G, 10 min) and supernatants (50 μL) are collected into another 96-deep-well plate and mixed (10 sec, 1400 rpm) with 150 μL ice cold formic acid (0.1%, Carl Roth GmbH+Co.KG, #CP03.1). The formation of pantothenic acid is detected by RapidFire Mass Spectrometry. A TripleQuad 6500+ (ABSciex, Germany) is equipped with an LC-1290 system, a RapidFire autosampler (Agilent, Germany) and a C18 cartridge Type C 12 μL (Agilent Cat #G9526-80000). Mobile phase A is consisting of 0.09% formic acid and 0.01% trifluoroacetic acid in water and mobile phase B of 0.09% formic acid and 0.01% trifluoroacetic acid in acetonitrile/methanol/water=47.5/47.5/5.

Usually IC50 stands for the concentration that gives 50% inhibition. `CC(=O)N(C)[C@H]1CCN(C(=O)c2ccc(NCc3cccc(Cl)c3)nc2)C1` [Example 1.3]: the IC50 in experiment [1] came to 1.02 nM; in the experiment on Pantetheinase (vanin), 1.03 nM.

Turning to `CC(=O)N(C)[C@H]1CCN(C(=O)c2ccc(NCc3ccccc3Cl)nc2)C1` [Example 1.4], the values for the IC50 (in experiment [1]; in the experiment on Pantetheinase (vanin)) were 0.48 nM and 4.85 nM, respectively.

Turning to `Cc1ccncc1CNc1ccc(C(=O)N2CC[C@H](N(C)C(=O)C3CC3)C2)cn1` [Example 1.5], the IC50 in experiment [1] came out at 0.07 nM; in the experiment with Pantetheinase (vanin) it was 1.59 nM.

`CC(=O)N(C)[C@H]1CCN(C(=O)c2ccc(NCc3ccccc3)nc2)C1` [Example 1.6]: the half-inhibitory concentration (IC50) in experiment [1] turned out to be 0.81 nM; in the experiment on Pantetheinase (vanin), 2.34 nM.

Turning to `CN(C(=O)C1CC1)[C@H]1CCN(C(=O)c2ccc(NCc3cccnc3)nc2)C1` [Example 1.8], the IC50 is 0.12 nM in experiment [1] and 1.69 nM in the experiment on Pantetheinase (vanin).

With `Cc1ccncc1CNc1ccc(C(=O)N2CC[C@H](N(C)C(=O)C3(C)CCC3)C2)cn1` [Example 1.9], the IC50 in experiment [1] turned out to be 0.12 nM; with Pantetheinase (vanin), 1.9 nM.

`COc1ccncc1CNc1ccc(C(=O)N2CC[C@H](N(C)C(=O)C3CC3)C2)cn1` [Example 1.10]: the IC50 in experiment [1] is 0.14 nM; in the experiment with Pantetheinase (vanin) it was 1.24 nM.

`CC(=O)N(C)[C@H]1CCN(C(=O)c2ccc(N[C@@H](C)c3ccc(Cl)nc3)nc2)C1` [Example 1.11, N-[(3S)-1-(6-{[(1S)-1-(6-chloropyridin-3-yl)ethyl]-amino}pyridine-3-carbonyl)pyrrolidin-3-yl]-N-methylacetamide]: the results for the IC50 (in experiment [1]; with Pantetheinase (vanin)) were 0.15 nM and 1.9 nM, respectively.

Turning to `CC(=O)N(C)[C@H]1CCN(C(=O)c2ccc(N[C@@H](C)c3cccc(C#N)c3)nc2)C1` [Example 1.12], the IC50 in experiment [1] came out at 0.16 nM; in the experiment on Pantetheinase (vanin) it was 6.13 nM.

Turning to `CN(C(=O)C1(C)CCC1)[C@H]1CCN(C(=O)c2ccc(NCc3cccnc3)nc2)C1` [Example 1.14], the figures for the concentration for half-maximal inhibition (IC50) (in experiment [1]; with Pantetheinase (vanin)) were 0.18 nM and 8.7 nM, respectively.

Take `Cc1ncccc1CNc1ccc(C(=O)N2CC[C@H](N(C)C(=O)C3CC3)C2)cn1` [Example 1.15]: the IC50 in experiment [1] is 0.21 nM; in the experiment with Pantetheinase (vanin), 1.52 nM.

On to `CC(=O)N(C)[C@H]1CCN(C(=O)c2ccc(NC3(c4cncc(C(F)(F)F)c4)CC3)nc2)C1` [Example 1.17], for which the results for the IC50 (in experiment [1]; in the experiment on Pantetheinase (vanin)) were 0.21 nM and 5.59 nM, respectively.

`Cc1ncccc1CNc1ccc(C(=O)N2CC[C@H](N(C)C(=O)C3(C)CCC3)C2)cn1` [Example 1.18]: the IC50 in experiment [1] is 0.22 nM; in the experiment with Pantetheinase (vanin) it was 1.77 nM.

As to `CC(=O)N(C)[C@H]1CCN(C(=O)c2ccc(N[C@@H](C)c3cccc(S(N)(=O)=O)c3)nc2)C1` [Example 1.19], the IC50 in experiment [1] stood at 0.22 nM; with Pantetheinase (vanin), 2.63 nM.

For `CC(=O)N(C)[C@H]1CCN(C(=O)c2ccc(NC3(c4ccc(C(F)(F)F)nc4)CC3)nc2)C1` [Example 1.20], the figures for the IC50 (in experiment [1]; in the experiment with Pantetheinase (vanin)) were 0.23 nM and 4.74 nM, respectively.

As to `CNS(=O)(=O)c1cccc(C(C)Nc2ccc(C(=O)N3CC[C@H](N(C)C(C)=O)C3)cn2)c1` (stereo partly drawn) [Example 1.21], the IC50 in experiment [1] amounted to 0.24 nM; in the experiment on Pantetheinase (vanin), 0.8 nM.

As for `COc1ccncc1CNc1ccc(C(=O)N2CC[C@H](N(C)C(=O)C3(C)CCC3)C2)cn1` [Example 1.22], the results for the IC50 (in experiment [1]; in the experiment with Pantetheinase (vanin)) were 0.24 nM and 2.51 nM, respectively.

Consider `CNS(=O)(=O)c1cccc([C@H](C)Nc2ccc(C(=O)N3CC[C@H](N(C)C(C)=O)C3)cn2)c1` [Example 1.23], for which the IC50 turned out to be 0.26 nM in experiment [1] and 5.21 nM in the experiment on Pantetheinase (vanin).

Take `CN(C(=O)C1CC1)[C@H]1CCN(C(=O)c2ccc(NCc3ccc(N)nc3)nc2)C1` [Example 1.24]: the IC50 in experiment [1] came out at 0.27 nM; in the experiment with Pantetheinase (vanin), 1.44 nM.

For the compound `CN(C(=O)C1(C)CCC1)[C@H]1CCN(C(=O)c2ccc(NC3CCc4[nH]ncc43)nc2)C1` (stereo partly drawn) [Example 1.26], the IC50 in experiment [1] turned out to be 0.29 nM; in the experiment on Pantetheinase (vanin) it was 1.98 nM.

On to `CC(=O)N(C)[C@H]1CCN(C(=O)c2ccc(NC(C)c3cccc(S(N)(=O)=O)c3)nc2)C1` (stereo partly drawn) [Example 1.27], for which the 50% inhibitory concentration (IC50) is 0.3 nM in experiment [1] and 4.39 nM in the experiment with Pantetheinase (vanin).

For `C[C@@H](Nc1ccc(C(=O)N2CC[C@H](N(C)C(=O)C3(C)CCC3)C2)cn1)c1cnccn1` [Example 1.30], the IC50 was 0.4 nM in experiment [1] and 3.28 nM in the experiment on Pantetheinase (vanin).

As for `CN(C(=O)C1(C)CCC1)[C@H]1CCN(C(=O)c2ccc(NCc3ccc(N)nc3)nc2)C1` [Example 1.31], the values for the IC50 (in experiment [1]; in the experiment with Pantetheinase (vanin)) were 0.44 nM and 2.63 nM, respectively.

As for `CN(C(=O)C1CC1)[C@H]1CCN(C(=O)c2ccc(NCc3cnccc3C(F)(F)F)nc2)C1` [Example 1.33], the values for the IC50 (in experiment [1]; in the experiment with Pantetheinase (vanin)) were 0.46 nM and 2.05 nM, respectively.

As for `CC(=O)N(C)[C@H]1CCN(C(=O)c2ccc(NC3CCc4ncccc43)nc2)C1` (stereo partly drawn) [Example 1.37], the IC50 in experiment [1] was found to be 0.61 nM; with Pantetheinase (vanin) it was 1.07 nM.

For the compound `CN(C(=O)C1CC1)[C@H]1CCN(C(=O)c2ccc(NCc3cncc(F)c3)nc2)C1` [Example 1.38], the IC50 is 0.65 nM in experiment [1] and 5.19 nM in the experiment with Pantetheinase (vanin).

Turning to `CC(=O)N(C)[C@H]1CCN(C(=O)c2ccc(NC(C)c3cccc(C#N)c3)nc2)C1` (stereo partly drawn) [Example 1.40], the IC50 in experiment [1] came to 0.67 nM; in the experiment with Pantetheinase (vanin), 2.1 nM.

As to `CC(=O)N(C)[C@H]1CCN(C(=O)c2ccc(NCc3cccs3)nc2)C1` [Example 1.42], the IC50 in experiment [1] was found to be 0.85 nM; in the experiment on Pantetheinase (vanin), 9.88 nM.

As for `CC(=O)N(C)[C@H]1CCN(C(=O)c2ccc(NCc3cncc(F)c3)nc2)C1` [Example 1.43], the IC50 in experiment [1] was determined as 0.86 nM; in the experiment on Pantetheinase (vanin), 3.24 nM.

As to `CN(C)c1ccc(CNc2ccc(C(=O)N3CC[C@H](N(C)C(=O)C4CC4)C3)cn2)cn1` [Example 1.44], the IC50 in experiment [1] came to 0.91 nM; with Pantetheinase (vanin), 7.03 nM.

`COc1ccc(CNc2ccc(C(=O)N3CC[C@H](N(C)C(=O)C4CC4)C3)cn2)cn1` [Example 1.47]: the IC50 was 0.97 nM in experiment [1] and 5.93 nM with Pantetheinase (vanin).

For the compound `CN(C(=O)C1CC1)[C@H]1CCN(C(=O)c2ccc(NC(C)(C)c3ccccc3)nc2)C1` [Example 2.1, N-Methyl-N-[(3S)-1-{6-[(2-phenylpropan-2-yl)amino]pyridine-3-carbonyl}pyrrolidin-3-yl]cyclopropanecarboxamide], the IC50 was 0.06 nM in experiment [1] and 3.57 nM in the experiment on Pantetheinase (vanin).

On to `CN(C(=O)C1CCC1)[C@H]1CCN(C(=O)c2ccc(NC(C)(C)c3ccccc3)nc2)C1` [Example 2.2], for which the values for the IC50 (in experiment [1]; in the experiment with Pantetheinase (vanin)) were 0.07 nM and 4.49 nM, respectively.
